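Following 48 hours of exposure in 96-well plates, responses at five concentrations were used to interpolate endpoints linearly. GI50 = concentration required for 50% inhibition of growth. TGI: concentration producing complete growth inhibition.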
What was measured:
Assay in all cases: DTP human tumour cell line panel, 48 h
[1] = test system: ACHN renal
[2] = test system: CAKI-1 renal
[3] = test system: RPMI-8226 leukemia
[4] = test system: NCI-H23 lung
[5] = test system: SF-295 CNS
[6] = test system: SF-539 CNS
[7] = test system: K-562 leukemia
[8] = test system: DU-145 prostate
[9] = test system: SK-MEL-5 melanoma
[10] = test system: COLO 205 colon
[11] = test system: NCI-H522 lung
[12] = test system: NCI-H226 lung
[13] = test system: MOLT-4 leukemia
[14] = test system: PC-3 prostate
[15] = test system: HCC-2998 colon
[16] = test system: SN12C renal
[17] = test system: OVCAR-5 ovarian
[18] = test system: HCT-116 colon
[19] = test system: HS 578T breast
[20] = test system: OVCAR-3 ovarian
[21] = test system: 786-0 renal
[22] = test system: BT-549 breast
[23] = test system: RXF 393 renal
[24] = test system: TK-10 renal
[25] = test system: HOP-92 NSCLC
[26] = test system: EKVX NSCLC
[27] = test system: MCF7 breast
[28] = test system: T-47D breast
[29] = test system: HCT-15 colon
[30] = test system: UACC-62 melanoma
[31] = test system: SNB-19 CNS
[32] = test system: A549 NSCLC
[33] = test system: LOX IMVI melanoma
[34] = test system: M14 melanoma
[35] = test system: UACC-257 melanoma
[36] = test system: NCI/ADR-RES ovarian
[37] = test system: MDA-MB-435
[38] = test system: CCRF-CEM leukemia
[39] = test system: OVCAR-4 ovarian
[40] = test system: A498 renal
[41] = test system: HL-60(TB) leukemia
[42] = test system: SF-268 CNS
[43] = test system: UO-31 renal
[44] = test system: IGROV1 ovarian
[45] = test system: SW-620 colon
[46] = test system: SK-MEL-28 melanoma
[47] = test system: KM12 colon
[48] = test system: NCI-H460 lung
[49] = test system: SK-OV-3 ovarian
[50] = test system: SR leukemia
[51] = test system: SNB-75 CNS
[52] = test system: OVCAR-8 ovarian
[53] = test system: HOP-62 NSCLC
[54] = test system: SK-MEL-2 melanoma
[55] = test system: MDA-MB-231 breast

Compound: Cc1c(C(=O)NN)nnn1-c1ccnc2c(C(F)(F)F)cccc12
- GI50 [1]: > 100 µM
- TGI [1]: > 100 µM
- GI50 [2]: > 100 µM
- TGI [2]: > 100 µM
- GI50 [3]: > 100 µM
- TGI [3]: > 100 µM
- GI50 [4]: > 100 µM
- TGI [4]: > 100 µM
- GI50 [5]: > 100 µM
- TGI [5]: > 100 µM
- GI50 [6]: > 100 µM
- TGI [6]: > 100 µM
- GI50 [7]: > 100 µM
- TGI [7]: > 100 µM
- GI50 [8]: > 100 µM
- TGI [8]: > 100 µM
- GI50 [9]: > 100 µM
- TGI [9]: > 100 µM
- GI50 [10]: > 100 µM
- TGI [10]: > 100 µM
- GI50 [11]: > 100 µM
- TGI [11]: > 100 µM
- GI50 [12]: > 100 µM
- TGI [12]: > 100 µM
- GI50 [13]: > 100 µM
- TGI [13]: > 100 µM
- GI50 [14]: > 100 µM
- TGI [14]: > 100 µM
- GI50 [15]: > 100 µM
- TGI [15]: > 100 µM
- GI50 [16]: 76.5 µM
- TGI [16]: > 100 µM
- GI50 [17]: > 100 µM
- TGI [17]: > 100 µM
- GI50 [18]: > 100 µM
- TGI [18]: > 100 µM
- GI50 [19]: > 100 µM
- TGI [19]: > 100 µM
- GI50 [20]: > 100 µM
- TGI [20]: > 100 µM
- GI50 [21]: > 100 µM
- TGI [21]: > 100 µM
- GI50 [22]: > 100 µM
- TGI [22]: > 100 µM
- GI50 [23]: > 100 µM
- TGI [23]: > 100 µM
- GI50 [24]: > 100 µM
- TGI [24]: > 100 µM
- GI50 [25]: > 100 µM
- TGI [25]: > 100 µM
- GI50 [26]: > 100 µM
- TGI [26]: > 100 µM
- GI50 [27]: > 100 µM
- TGI [27]: > 100 µM
- GI50 [28]: > 100 µM
- TGI [28]: > 100 µM
- GI50 [29]: > 100 µM
- TGI [29]: > 100 µM
- GI50 [30]: > 100 µM
- TGI [30]: > 100 µM
- GI50 [31]: > 100 µM
- TGI [31]: > 100 µM
- GI50 [32]: > 100 µM
- TGI [32]: > 100 µM
- GI50 [33]: > 100 µM
- TGI [33]: > 100 µM
- GI50 [34]: > 100 µM
- TGI [34]: > 100 µM
- GI50 [35]: > 100 µM
- TGI [35]: > 100 µM
- GI50 [36]: > 100 µM
- TGI [36]: > 100 µM
- GI50 [37]: > 100 µM
- TGI [37]: > 100 µM
- GI50 [38]: > 100 µM
- TGI [38]: > 100 µM
- GI50 [39]: 12 µM
- TGI [39]: 89.4 µM
- GI50 [40]: > 100 µM
- TGI [40]: > 100 µM
- GI50 [41]: > 100 µM
- TGI [41]: > 100 µM
- GI50 [42]: > 100 µM
- TGI [42]: > 100 µM
- GI50 [43]: > 100 µM
- TGI [43]: > 100 µM
- GI50 [44]: > 100 µM
- TGI [44]: > 100 µM
- GI50 [45]: > 100 µM
- TGI [45]: > 100 µM
- GI50 [46]: > 100 µM
- TGI [46]: > 100 µM
- GI50 [47]: > 100 µM
- TGI [47]: > 100 µM
- GI50 [48]: > 100 µM
- TGI [48]: > 100 µM
- GI50 [49]: > 100 µM
- TGI [49]: > 100 µM
- GI50 [50]: > 100 µM
- TGI [50]: > 100 µM
- GI50 [51]: 37.9 µM
- TGI [51]: > 100 µM
- GI50 [52]: > 100 µM
- TGI [52]: > 100 µM
- GI50 [53]: > 100 µM
- TGI [53]: > 100 µM
- GI50 [54]: > 100 µM
- TGI [54]: > 100 µM
- GI50 [55]: > 100 µM
- TGI [55]: > 100 µM
